Experimental data: ChEMBL document CHEMBL1201862, “PubChem BioAssay data set” (2004)
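Method: 48-hour compound exposure of cells in 96-well plates, five concentrations, linear interpolation of endpoints. At the GI50, growth is halved.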 Calls of active or inactive are those of the source. Cut-off read from the data, not from the text of the source: active = GI50 up to about 1.1 µM and inactive = higher.

Key:
Experiment in all cases: inhibition of tumour cell growth, NCI panel, 48 h
A498 = system: A498
CCRF-CEM = system: CCRF-CEM
HL-60 = system: HL-60
HOP-62 = system: HOP-62
HT-29 = system: HT-29
KM12 = system: KM12
MDA-MB-231 = system: MDA-MB-231
MDA-MB-435 = system: MDA-MB-435
MDA-N = system: MDA-N
NCI-H226 = system: NCI-H226
NCI-H23 = system: NCI-H23
NCI-H460 = system: NCI-H460
OVCAR-5 = system: OVCAR-5
OVCAR-8 = system: OVCAR-8
RPMI-8226 = system: RPMI-8226
RXF 393 = system: RXF 393
SK-MEL-5 = system: SK-MEL-5
SW-620 = system: SW-620
UO-31 = system: UO-31
BT-549 = system: BT-549

SMILES | GI50 (A498) | GI50 (CCRF-CEM) | GI50 (HL-60) | GI50 (HOP-62) | GI50 (HT-29) | GI50 (KM12) | GI50 (MDA-MB-231) | GI50 (MDA-MB-435) | GI50 (MDA-N) | GI50 (NCI-H226) | GI50 (NCI-H23) | GI50 (NCI-H460) | GI50 (OVCAR-5) | GI50 (OVCAR-8) | GI50 (RPMI-8226) | GI50 (RXF 393) | GI50 (SK-MEL-5) | GI50 (SW-620) | GI50 (UO-31) | GI50 (BT-549)
COc1cc(OC)c(OC)cc1/C=N/N=C(\N)NO | > 100 µM (inactive) | > 100 µM (inactive) | 83.9 µM (inactive) | > 100 µM (inactive) | > 100 µM (inactive) | 18.5 µM (inactive) | > 100 µM (inactive) | 68.2 µM (inactive) | > 100 µM (inactive) | 61.4 µM (inactive) | > 100 µM (inactive) | > 100 µM (inactive) | > 100 µM (inactive) | > 100 µM (inactive) | 68.9 µM (inactive) | > 100 µM (inactive) | > 100 µM (inactive) | > 100 µM (inactive) | > 100 µM (inactive) | –
COC(=O)C(C)(C)[C@@H]1OC(=O)N(S(=O)(=O)c2c(C)cc(C)cc2C)[C@H]1C(C)C | – | 75.9 µM (inactive) | 23.6 µM (inactive) | > 100 µM (inactive) | 65.8 µM (inactive) | 91.4 µM (inactive) | > 100 µM (inactive) | > 100 µM (inactive) | > 100 µM (inactive) | 27.4 µM (inactive) | 46.8 µM (inactive) | 55 µM (inactive) | > 100 µM (inactive) | > 100 µM (inactive) | > 100 µM (inactive) | > 100 µM (inactive) | 41.8 µM (inactive) | 82.2 µM (inactive) | > 100 µM (inactive) | –
CC(=O)c1ccc2c(c1)CC1(C2)Cc2cc3c(cc2C1=O)CCC3 (stereo not drawn) | 19.5 µM (inactive) | 13.3 µM (inactive) | 14.3 µM (inactive) | 28 µM (inactive) | 15.7 µM (inactive) | 17.5 µM (inactive) | 20.6 µM (inactive) | 17 µM (inactive) | 14.4 µM (inactive) | – | 21.5 µM (inactive) | 26.1 µM (inactive) | 30.6 µM (inactive) | 16.1 µM (inactive) | 11.1 µM (inactive) | 20.8 µM (inactive) | 10.3 µM (inactive) | 32.6 µM (inactive) | 26.1 µM (inactive) | –
CCNC1CC(C(C)(C)NCC)CC=C1C (stereo not drawn) | – | > 100 µM (inactive) | > 100 µM (inactive) | > 100 µM (inactive) | > 100 µM (inactive) | > 100 µM (inactive) | > 100 µM (inactive) | > 100 µM (inactive) | > 100 µM (inactive) | – | > 100 µM (inactive) | > 100 µM (inactive) | > 100 µM (inactive) | > 100 µM (inactive) | – | – | > 100 µM (inactive) | > 100 µM (inactive) | > 100 µM (inactive) | > 100 µM (inactive)
COc1ccc(/C=C2\Sc3nnc(-c4ccccc4)n3N=C2c2cc(F)c(Cl)cc2Cl)cc1OC | > 100 µM (inactive) | 4.98 µM (inactive) | 0.573 µM (active) | > 100 µM (inactive) | 12.1 µM (inactive) | 26.7 µM (inactive) | 59.2 µM (inactive) | 13.8 µM (inactive) | 23.1 µM (inactive) | > 100 µM (inactive) | 51.2 µM (inactive) | > 100 µM (inactive) | > 100 µM (inactive) | 48.9 µM (inactive) | 6.04 µM (inactive) | 11.7 µM (inactive) | > 100 µM (inactive) | 14.2 µM (inactive) | 31.1 µM (inactive) | –
CC(C)(C)OC(=O)N[C@H]1CCN(C2CCCCC2)C1=O | > 100 µM (inactive) | > 100 µM (inactive) | > 100 µM (inactive) | > 100 µM (inactive) | – | – | > 100 µM (inactive) | > 100 µM (inactive) | > 100 µM (inactive) | > 100 µM (inactive) | > 100 µM (inactive) | > 100 µM (inactive) | > 100 µM (inactive) | > 100 µM (inactive) | > 100 µM (inactive) | – | > 100 µM (inactive) | > 100 µM (inactive) | > 100 µM (inactive) | –
CC1=C(C)SC(=C2Sc3[n-]c(=O)[nH]c(=O)c3S2)S1.CCCC[N+](CCCC)(CCCC)CCCC | > 100 µM (inactive) | 40.4 µM (inactive) | < 0.01 µM (active) | > 100 µM (inactive) | > 100 µM (inactive) | 98.2 µM (inactive) | > 100 µM (inactive) | 31.6 µM (inactive) | – | > 100 µM (inactive) | > 100 µM (inactive) | > 100 µM (inactive) | > 100 µM (inactive) | 49.4 µM (inactive) | > 100 µM (inactive) | > 100 µM (inactive) | 28.5 µM (inactive) | > 100 µM (inactive) | > 100 µM (inactive) | > 100 µM (inactive)
CSC1=N/C(=C\c2c[nH]c3ccccc23)C(=O)N1 | 38.1 µM (inactive) | > 100 µM (inactive) | 18.3 µM (inactive) | 76.9 µM (inactive) | 31.6 µM (inactive) | – | 52.6 µM (inactive) | 55.2 µM (inactive) | – | > 100 µM (inactive) | > 100 µM (inactive) | 49.7 µM (inactive) | > 100 µM (inactive) | > 100 µM (inactive) | 77.4 µM (inactive) | 92.7 µM (inactive) | 39.4 µM (inactive) | > 100 µM (inactive) | 35.8 µM (inactive) | > 100 µM (inactive)
Clc1ccc(/N=C/c2cc3cc(Br)ccc3nc2Cl)cc1 | – | 9.08 µM (inactive) | 9.82 µM (inactive) | – | 16 µM (inactive) | 20 µM (inactive) | – | 8.71 µM (inactive) | 11.2 µM (inactive) | > 50 µM (inactive) | > 50 µM (inactive) | 18.1 µM (inactive) | > 50 µM (inactive) | 28.1 µM (inactive) | 13.2 µM (inactive) | > 50 µM (inactive) | 6.59 µM (inactive) | 14.2 µM (inactive) | 36.8 µM (inactive) | > 50 µM (inactive)
CN(N=O)N1C(=O)SCC(c2ccccc2)(c2ccccc2)C1=O | > 100 µM (inactive) | 31.1 µM (inactive) | 46.1 µM (inactive) | 65.9 µM (inactive) | 33.3 µM (inactive) | 30.1 µM (inactive) | 37.3 µM (inactive) | 24.3 µM (inactive) | 28.4 µM (inactive) | 14 µM (inactive) | > 100 µM (inactive) | 9.62 µM (inactive) | > 100 µM (inactive) | 16.2 µM (inactive) | 25.8 µM (inactive) | 22.3 µM (inactive) | 37.8 µM (inactive) | 38.7 µM (inactive) | 25.8 µM (inactive) | –
O=c1c2c(oc3ccccc13)-c1ccccc1OC2 | – | > 100 µM (inactive) | – | 88.9 µM (inactive) | > 100 µM (inactive) | > 100 µM (inactive) | 21.1 µM (inactive) | > 100 µM (inactive) | > 100 µM (inactive) | > 100 µM (inactive) | 59.7 µM (inactive) | – | > 100 µM (inactive) | 27.9 µM (inactive) | > 100 µM (inactive) | – | 44.8 µM (inactive) | 67.8 µM (inactive) | 28.6 µM (inactive) | > 100 µM (inactive)
CCCCCCCCOCC1S(=O)(=O)OCCOS1(=O)=O | > 100 µM (inactive) | > 100 µM (inactive) | > 100 µM (inactive) | > 100 µM (inactive) | > 100 µM (inactive) | – | > 100 µM (inactive) | > 100 µM (inactive) | > 100 µM (inactive) | > 100 µM (inactive) | > 100 µM (inactive) | > 100 µM (inactive) | > 100 µM (inactive) | > 100 µM (inactive) | > 100 µM (inactive) | > 100 µM (inactive) | > 100 µM (inactive) | > 100 µM (inactive) | > 100 µM (inactive) | –
CC1=NC(C)(C)N(O)C1(C)C | > 100 µM (inactive) | > 100 µM (inactive) | > 100 µM (inactive) | > 100 µM (inactive) | > 100 µM (inactive) | > 100 µM (inactive) | > 100 µM (inactive) | > 100 µM (inactive) | > 100 µM (inactive) | > 100 µM (inactive) | > 100 µM (inactive) | > 100 µM (inactive) | > 100 µM (inactive) | > 100 µM (inactive) | > 100 µM (inactive) | > 100 µM (inactive) | > 100 µM (inactive) | > 100 µM (inactive) | > 100 µM (inactive) | –
CC(C)(C)[C@H]1NC(=O)CN1C(=O)OCc1ccccc1 | 10.7 µM (inactive) | > 100 µM (inactive) | > 100 µM (inactive) | > 100 µM (inactive) | > 100 µM (inactive) | > 100 µM (inactive) | 35.5 µM (inactive) | > 100 µM (inactive) | – | > 100 µM (inactive) | > 100 µM (inactive) | > 100 µM (inactive) | > 100 µM (inactive) | > 100 µM (inactive) | 87.7 µM (inactive) | > 100 µM (inactive) | 85.9 µM (inactive) | > 100 µM (inactive) | 9.35 µM (inactive) | > 100 µM (inactive)
CC(=O)OCC1OC(n2c3c(c(-c4ccc(Cl)cc4)c(C#N)c2=S)CCCC3)C(OC(C)=O)C(OC(C)=O)C1OC(C)=O (stereo not drawn) | 35.2 µM (inactive) | 40.7 µM (inactive) | 64.9 µM (inactive) | 97.3 µM (inactive) | 57.5 µM (inactive) | 71.4 µM (inactive) | > 100 µM (inactive) | 67.3 µM (inactive) | 42.8 µM (inactive) | 36.6 µM (inactive) | 46.5 µM (inactive) | 42.5 µM (inactive) | > 100 µM (inactive) | > 100 µM (inactive) | – | 23.5 µM (inactive) | 16.7 µM (inactive) | – | 4.4 µM (inactive) | –
